Source: PubChem BioAssay (NCI)
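Briefly, cells in 96-well plates were exposed to five compound concentrations for 48 h, and endpoints were estimated by linear interpolation. The concentration for full growth arrest is given as TGI.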

Tests used:
Assay in all cases: NCI tumour cell line growth inhibition, 48 h
[1] = test system: SK-MEL-28 melanoma
[2] = test system: K-562 leukemia
[3] = test system: BT-549 breast
[4] = test system: UO-31 renal
[5] = test system: HL-60(TB) leukemia
[6] = test system: NCI-H460 lung
[7] = test system: UACC-62 melanoma
[8] = test system: HOP-92 NSCLC
[9] = test system: CCRF-CEM leukemia
[10] = test system: T-47D breast
[11] = test system: SF-268 CNS
[12] = test system: UACC-257 melanoma
[13] = test system: COLO 205 colon
[14] = test system: SK-MEL-5 melanoma
[15] = test system: SK-MEL-2 melanoma
[16] = test system: SW-620 colon
[17] = test system: PC-3 prostate
[18] = test system: NCI-H226 lung

SMILES	TGI [1] [µM]	TGI [2] [µM]	TGI [3] [µM]	TGI [4] [µM]	TGI [5] [µM]	TGI [6] [µM]	TGI [7] [µM]	TGI [8] [µM]	TGI [9] [µM]	TGI [10] [µM]	TGI [11] [µM]	TGI [12] [µM]	TGI [13] [µM]	TGI [14] [µM]	TGI [15] [µM]	TGI [16] [µM]	TGI [17] [µM]	TGI [18] [µM]
O=C(Cc1ccccc1)NNc1nc(NNC(=O)c2ccncc2)nc(Nc2ccccc2)n1	> 10	> 10	> 10	> 10	> 10	> 10	> 10	> 10	> 10	> 10	> 10	> 10	> 10	–	–	–	–	–
O=C(/C=C\c1ccccc1)Oc1ccc(/C=C2\CCCCC2=O)cc1	> 100	–	–	> 100	35.2	> 100	0.136	> 100	27.2	> 100	> 100	87.3	62.9	> 100	> 100	> 100	> 100	–
C/C1=C\[C@H](C)C[C@H](C)OC(=O)C[C@H](c2ccc(O)cc2)NC(=O)[C@H](Cc2ccc(O)c(Br)c2)N(C)C(=O)[C@H](C)NC(=O)[C@@H](C)C1	> 25	> 25	–	> 25	–	–	> 25	> 25	> 25	–	> 25	–	> 25	> 25	> 25	> 25	> 25	> 25
Cc1cc(N(CCCCl)CCCCl)ccc1C=Nc1cccc(Cl)c1	41.5	22.7	–	44.2	38	22.6	7.28	–	–	24.1	48.4	20.2	23.6	27.4	36.5	25.4	25.9	0.562
COc1ccc2c(c1)CCCN1Cc3cc(OC)c(OC)cc3CC21 (centres undefined)	> 100	> 100	> 100	> 100	–	> 100	> 100	> 100	> 100	> 100	> 100	> 100	> 100	> 100	–	> 100	> 100	> 100
CC(C)(C)CC(C)(C)N=C(N)NO	> 100	> 100	–	> 80.2	> 100	> 100	> 100	> 100	> 100	> 100	> 100	> 100	> 100	> 100	> 100	> 100	> 100	> 100
CCOC(CI)O[C@@H]1C=C[C@H](OC(C)=O)C1 (some centres undefined)	> 100	> 100	> 100	> 100	–	> 100	> 100	–	> 100	> 100	> 100	> 100	> 100	–	> 100	> 100	> 100	> 100
COCOCC1CCCN1CN1CCC[C@H]1COCOC (some centres undefined)	> 100	> 100	–	> 100	61.3	> 100	> 100	> 100	> 100	> 100	> 100	> 100	> 100	> 100	> 100	> 100	> 100	> 100
Cc1nc2ccccc2c(=O)n1NC(=S)Nc1cccc(Cl)c1	> 100	> 100	–	> 100	> 100	> 100	> 100	> 100	> 100	–	> 100	> 100	> 100	> 100	> 100	> 100	–	> 100
Cc1ccc2c(c1)SC(c1cc3c(cc1Br)OCO3)S2 (centres undefined)	> 31.6	> 31.6	–	> 31.6	> 31.6	> 31.6	> 31.6	> 31.6	> 31.6	–	> 31.6	> 31.6	> 31.6	> 31.6	> 31.6	> 100	–	> 31.6
O=c1cc(-c2ccccc2)oc2ccc(-c3ccc4oc(-c5ccccc5)cc(=O)c4c3)cc12	–	34.3	–	21.7	27.8	41.9	31.8	30.8	43.7	–	–	–	41.5	25.5	32.7	> 100	–	–
CN1CCCC1=NC#N	> 100	> 100	–	> 100	> 100	> 100	> 100	–	> 100	> 100	> 100	–	> 100	> 100	> 100	> 100	> 100	> 100
CN1C(=O)[C@@H]2N(CSC2(C)C)C1=S	> 100	> 100	> 100	> 100	–	> 100	> 100	> 100	–	> 100	> 100	> 100	> 100	> 100	> 100	> 100	> 100	> 100
O=C(Nc1sccc1S(=O)(=O)c1ccc(Cl)cc1)C(F)(F)F	> 100	35.5	> 100	> 100	–	> 100	> 100	> 100	–	> 100	83.6	> 100	31.8	38.8	48.4	> 100	> 100	> 100
CCCc1c(C(=O)OCC)[nH]c(-c2ccc(-c3[nH]c(C(=O)OCC)c(CCC)c3C(=O)OCC)o2)c1C(=O)OCC	> 100	> 100	–	> 100	> 100	> 100	> 100	> 100	> 100	–	> 100	> 100	> 100	> 100	> 100	> 100	–	> 100
